Experimental data as given in ChEMBL document CHEMBL1201862, “PubChem BioAssay data set” (2004).
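Each compound was tested at five concentrations against cells in 96-well plates for 48 hours. At the GI50, growth is halved.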 The source made the active and inactive calls. No stated cut-off is given here; in the data, active = GI50 up to about 1.1 µM and inactive = higher.

Tests used:
Assay in all cases: DTP human tumour cell line panel, 48 h
NCI-H522 = tested on: NCI-H522
HT-29 = tested on: HT-29
NCI/ADR-RES = tested on: NCI/ADR-RES
OVCAR-8 = tested on: OVCAR-8
SNB-75 = tested on: SNB-75
MCF7 = tested on: MCF7
SW-620 = tested on: SW-620
RPMI-8226 = tested on: RPMI-8226
SK-OV-3 = tested on: SK-OV-3
K562 = tested on: K562
UACC-62 = tested on: UACC-62
UACC-257 = tested on: UACC-257
SF-268 = tested on: SF-268
MDA-MB-435 = tested on: MDA-MB-435
TK-10 = tested on: TK-10
SN12C = tested on: SN12C
Malme-3M = tested on: Malme-3M
RXF 393 = tested on: RXF 393
SK-MEL-28 = tested on: SK-MEL-28
HCC 2998 = tested on: HCC 2998

Row | Structure (SMILES) | GI50 (NCI-H522) | GI50 (HT-29) | GI50 (NCI/ADR-RES) | GI50 (OVCAR-8) | GI50 (SNB-75) | GI50 (MCF7) | GI50 (SW-620) | GI50 (RPMI-8226) | GI50 (SK-OV-3) | GI50 (K562) | GI50 (UACC-62) | GI50 (UACC-257) | GI50 (SF-268) | GI50 (MDA-MB-435) | GI50 (TK-10) | GI50 (SN12C) | GI50 (Malme-3M) | GI50 (RXF 393) | GI50 (SK-MEL-28) | GI50 (HCC 2998)
1 | CCOC(=O)c1ccc(/N=C/C=C(\Nc2ccc(C(=O)OCC)cc2)c2ccc3ccccc3c2)cc1 | 27.5 µM (inactive) | 18.4 µM (inactive) | 21.5 µM (inactive) | 35.4 µM (inactive) | 28 µM (inactive) | 23.4 µM (inactive) | 45.2 µM (inactive) | 18.7 µM (inactive) | 30.2 µM (inactive) | 13.3 µM (inactive) | 14 µM (inactive) | 31 µM (inactive) | 42.1 µM (inactive) | 16.2 µM (inactive) | 19.8 µM (inactive) | 26.7 µM (inactive) | 20.5 µM (inactive) | 21.1 µM (inactive) | 23.5 µM (inactive) | 
2 | COc1ccc(CNc2nc(NCc3ccc(OC)cc3)nc(N3CCOCC3)n2)cc1 | 3.95 µM (inactive) | 2.79 µM (inactive) | 2.84 µM (inactive) | 6.81 µM (inactive) | 5.51 µM (inactive) | 4.15 µM (inactive) | 4.25 µM (inactive) | 1.69 µM (inactive) | 8.83 µM (inactive) | 4.55 µM (inactive) | 3.58 µM (inactive) | 5.22 µM (inactive) |  | 2.02 µM (inactive) | 3.4 µM (inactive) | 5.37 µM (inactive) | 1.03 µM (active) | > 100 µM (inactive) | 40.2 µM (inactive) | 
3 | O=[N+]([O-])c1ccc([I+]c2ccccc2)cc1 | 1.92 µM (inactive) | 2.97 µM (inactive) | 8.3 µM (inactive) | 5.41 µM (inactive) |  | 4.97 µM (inactive) | 4.49 µM (inactive) | 11.2 µM (inactive) | 2.07 µM (inactive) | 4.19 µM (inactive) | 2.96 µM (inactive) | 4.29 µM (inactive) | 6.61 µM (inactive) | 8.2 µM (inactive) | 8.91 µM (inactive) | 1.61 µM (inactive) | 4.78 µM (inactive) | 3.54 µM (inactive) | 3.6 µM (inactive) | 7.28 µM (inactive)
4 | CN(C)c1ccc(/C=N\NC(=O)CSCC(=O)N/N=C/c2ccc(N(C)C)cc2)cc1 | 27.6 µM (inactive) | 78.5 µM (inactive) | 36 µM (inactive) | 53.7 µM (inactive) | 56 µM (inactive) | 40.5 µM (inactive) | > 100 µM (inactive) | 33.3 µM (inactive) | > 100 µM (inactive) | 52.6 µM (inactive) | 35.1 µM (inactive) | > 100 µM (inactive) | > 100 µM (inactive) | 76.6 µM (inactive) | > 100 µM (inactive) | 31.2 µM (inactive) | > 100 µM (inactive) | 24.9 µM (inactive) | 63.8 µM (inactive) | 
5 | COc1ccc2c(c1)CC[C@@H]1C2CC[C@]2(C)OC(=O)CCC12 (stereo partly drawn) | 6.07 µM (inactive) | 19.8 µM (inactive) | 14.9 µM (inactive) | 14 µM (inactive) |  | 15 µM (inactive) | 10.7 µM (inactive) | 5.77 µM (inactive) | > 100 µM (inactive) | 3.01 µM (inactive) | 20.2 µM (inactive) | 12.8 µM (inactive) | 12.1 µM (inactive) | 26.5 µM (inactive) | 34.2 µM (inactive) | 14.8 µM (inactive) | 15.7 µM (inactive) | 12.7 µM (inactive) | 16.8 µM (inactive) | > 100 µM (inactive)
6 | COC(=O)C1=C(C)NC(C)=C(C(=O)OC)C1c1cccc(N=O)c1 | 3.18 µM (inactive) | 16.3 µM (inactive) | 22.5 µM (inactive) | 15 µM (inactive) |  | 18.4 µM (inactive) | 4.78 µM (inactive) | 4.53 µM (inactive) | 25.4 µM (inactive) | 4.69 µM (inactive) | 14.3 µM (inactive) | 16.6 µM (inactive) | 17 µM (inactive) | 16.1 µM (inactive) | 15 µM (inactive) | 18.8 µM (inactive) | 15.4 µM (inactive) | 13.3 µM (inactive) | 16.7 µM (inactive) | 22.3 µM (inactive)
